Consider 18 compounds from US6777431B2, “Non-convalent thrombin inhibitors” (Corvas International, Inc., priority 2001, dated 2004).

Structures are written as SMILES.

One experiment has as its target Thrombin (Homo sapiens, UniProt P00734). As to the kind of experiment: Thrombin (fIIa) chromogenic substrate assay (Pefachrome t-PA). In kind it is biochemical. As to conditions: human a-thrombin 0.5 nM, Pefachrome t-PA 250 μM, 30 min preincubation, HBSA pH 7.5; Ki calculated from the IC50. The protocol: (§1) The ability of compounds of the present invention to act as a selective inhibitor of thrombin activity was assessed by determining the concentration of test-compound which inhibited the activity of this enzyme by 50%, (IC50) or by determining the Ki value, and comparing this value to that determined for all or some of the following related serine proteases: recombinant tissue plasminogen activator (rt-PA), plasmin, activated protein C, chymotrypsin, factor Xa and trypsin. Ki is calculated from the IC50.
(§2) The buffer used for all assays was HBSA (10 mM HEPES, pH 7.5, 150 mM sodium chloride, 0.1% bovine serum albumin).
The assay for IC50 or Ki determinations was conducted by combining in appropriate wells of a Corning microtiter plate, 50 microliters of HBSA, 50 microliters of the test compound at a specified concentration (covering a broad concentration range) diluted in HBSA (or HBSA alone for V0 (uninhibited velocity) measurement), and 50 microliters of the enzyme diluted in HBSA. Following a 30 minute incubation at ambient temperature, 50 microliters of the substrate at the concentrations specified below were added to the wells, yielding a final total volume of 200 microliters. The initial velocity of chromogenic substrate hydrolysis was measured by the change in absorbance at 405 nm using a Thermo Max® Kinetic Microplate Reader over a 5 minute period in which less than 5% of the added substrate was utilized. The concentration of added inhibitor which caused a 50% decrease in the initial rate of hydrolysis was defined as the IC50 value. Ki may be calculated from the IC50 value.
Enzyme activity was determined using the chromogenic substrate, Pefachrome t-PA (CH3SO2-D-hexahydrotyrosine-glycyl-L-Arginine-p-nitroaniline, obtained from Pentapharm Ltd.). The substrate was reconstituted in deionized water prior to use.
The initial velocity of Pefachrome t-PA hydrolysis was measured by the change in absorbance at 405 nm using a Thermo Max® Kinetic Microplate Reader over a 5 minute period in which less than 5% of the added substrate was utilized. The concentration of added inhibitor which caused a 50% decrease in the initial rate of hydrolysis was defined as the IC50 value. Ki was calculated from the IC50 value.
A word on the Ki: it is the equilibrium dissociation constant of an inhibitor or competing ligand from its target. Regarding `Cc1ccc(NS(=O)(=O)Cc2ccccc2)c(=O)n1CCCNc1ccncc1` [A], the inhibitory constant (Ki) was ≤ 100 nM.

Take `Cc1ccc(NS(=O)(=O)Cc2ccccc2)c(=O)n1CCCNc1ccncn1` [M]: the Ki was ≤ 100 nM. As to `Cc1ccc(NS(=O)(=O)Cc2ccccc2)c(=O)n1CCCNc1ccc2cc[nH]c2c1` [I], the inhibition constant (Ki) was ≤ 100 nM. On the same count and under the same terms, under `Cc1cnc(NCCc2ccccc2)c(=O)n1CCCNc1ccncc1` [D] stands 100 to 300 nM. For the compound `Cc1ccc(NS(=O)(=O)Cc2ccc(Cl)cc2)c(=O)n1CCCNc1ccncc1F` [K], the Ki is ≤ 100 nM.

As for `Cc1ccc(NS(=O)(=O)Cc2ccccc2)c(=O)n1CCCNc1cccc2ncccc12` [P], the Ki was 100 to 300 nM.

Regarding `Cc1ccc(NS(=O)(=O)Cc2ccccc2)c(=O)n1CCCNc1ccc(N)nc1` [N], the Ki was 100 to 300 nM. Turning to `Cc1ccc(NS(=O)(=O)Cc2ccccc2)c(=O)n1CCCNc1ccc2ncccc2c1` [H], the inhibitory constant (Ki) was ≤ 100 nM.

As to `Cc1cnc(NCC(F)(F)c2ccccc2)c(=O)n1CCNc1ccncc1` [B], the Ki was ≤ 100 nM. The same measure, in the same setting: under `Cc1cnc(NCCCc2ccccc2)c(=O)n1CCCNc1ccncc1` [O] stands 100 to 300 nM; under `Cc1ccc(NS(=O)(=O)Cc2ccccc2)c(=O)n1CCCNc1ccnc2ccccc12` [L], ≤ 100 nM. The same measure, in the same setting: in the case of `Cc1ccc(NS(=O)(=O)Cc2ccccc2)c(=O)n1CCCn1ncc2ccc(N)cc21` [Q] it was 300 to 2500 nM; in that of `Cc1cnc(NCC(F)(F)c2ccccc2)c(=O)n1CCCNc1ccncc1` [C], ≤ 100 nM; in that of `Cc1ccc(NS(=O)(=O)Cc2ccccc2)c(=O)n1CCCNc1ncnc2[nH]cnc12` [G], 100 to 300 nM. Same read-out and setting: under `Cc1ccc(NS(=O)(=O)Cc2ccccc2)c(=O)n1CCCNc1cccc(N)n1` [R] stands 300 to 2500 nM; under `Cc1ccc(NS(=O)(=O)Cc2ccccc2)c(=O)n1CCCNc1ccncc1F` [J], ≤ 100 nM; under `Cc1ccc(NS(=O)(=O)Cc2ccc(Cl)cc2)c(=O)n1CCCNc1ccncc1` [F], ≤ 100 nM. As for `Cc1ccc(NS(=O)(=O)Cc2ccccc2)c(=O)n1CCCN(C)c1ccncc1` [E], the Ki is ≤ 100 nM.

For a further experiment, the target named is T1, Trypsin (Bos taurus, UniProt P00760).
T1 construct: Purified (3×-crystallized; TRL3) bovine pancreatic trypsin was obtained from Worthington Biochemical Corp; purchased Worthington Biochemical Corp. TRL3; host or cells: bovine pancreas
T1 sequence (P00760 24-246): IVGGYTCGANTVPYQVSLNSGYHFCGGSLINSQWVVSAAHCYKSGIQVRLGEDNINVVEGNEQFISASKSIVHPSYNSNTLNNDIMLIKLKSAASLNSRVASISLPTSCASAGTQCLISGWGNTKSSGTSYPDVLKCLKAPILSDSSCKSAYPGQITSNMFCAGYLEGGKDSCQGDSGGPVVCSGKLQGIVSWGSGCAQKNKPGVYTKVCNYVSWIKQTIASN
As to the kind of experiment: Trypsin chromogenic substrate assay (S-2222). In kind it is biochemical. The settings on record: bovine pancreatic trypsin 0.5 nM, S-2222 250 μM, HBSA pH 7.5. The protocol: as §1, §2
The assay for IC50 or Ki determinations was conducted by combining in appropriate wells of a Corning microtiter plate, 50 microliters of HBSA, 50 microliters of the test compound at a specified concentration (covering a broad concentration range) diluted in HBSA (or HBSA alone for V0 (uninhibited velocity) measurement), and 50 microliters of the enzyme diluted in HBSA. […] The initial velocity of chromogenic substrate hydrolysis was measured by the change in absorbance at 405 nm using a Thermo Max® Kinetic Microplate Reader over a 5 minute period in which less than 5% of the added substrate was utilized. […] Ki may be calculated from the IC50 value. […]
Usually IC50 stands for the concentration needed to halve the response being measured. In the case of `Cc1ccc(NS(=O)(=O)Cc2ccccc2)c(=O)n1CCCNc1ccncc1` [A], the IC50 fell in the range of 300 to 2500 nM.
